Common to all, as to format: physicochemical
Data set [1] in a line: Hydration study of solid forms by DVS analysis. On the procedure: Melting points (m.p.) of the intermediate detomidine free base and hydrochloride of Sample 5 measured in open capillary corresponded with the published literature and the DSC data and are presented in Table 4. In order to evaluate effect of humidity on different forms of detomidine, a hydration study was performed. Samples of detomidine free base and hydrochloride salt were subjected to DVS analysis. These observations are in accordance with the DVS results shown in FIGS. 1 and 2, for detomidine free base and detomidine HCl, respectively.
During the dehydration cycle, the monohydrate began to lose water at RH˜10% and converted into the anhydrate at RH=0%.

The nature of data set [2]: Aldehyde impurity assessment: aqueous stock solutions exposed to air, HPLC of RRT = 0.38. The conditions noted are these: 7.4 wt % detomidine HCl in water; for RRT = 0.38 content at 2 years: exposed to air at room temperature; for Initial RRT = 0.38 content: time zero. On the procedure: Therefore, for further identification of the elusive impurity, new HPLC protocols for assaying detomidine HCl were developed. One protocol (“HPLC Protocol A”) comprised using a SunFire C8 column, 100Å, 3.5 μm, 4.6×150 mm column with an initial mobile phase of 70% Ammonium Phosphate buffer solution, pH 7.9 and 30% Acetonitrile, at a flow rate of 1.0 mL/min and UV detection at 220 nm. To remove late eluting peaks, the flush gradient shown in Table 5 was applied after each run. This HPLC protocol allowed for a resolution factor of 3.9 between detomidine and the unidentified impurity. The quantitation level (QL) for impurities and degradation products is 0.025%. The detection level (DL) for impurities and degradation products is 0.01%.
Stock solutions of 7.4 wt % detomidine HCl in water were prepared using material from Table 6, Batch #iv and v and the samples were then kept exposed to air at room temperature for 2 years.

Data set [3] in a line: Oxidation with potassium permanganate in aqueous solution, HPLC of RRT = 0.38. Conditions: 3 hours after solution preparation. The procedure: A further sample of material from Table 6, Batch #v was reacted with potassium permanganate in aqueous solution. RRT=0.38 was found in the reaction product at 0.14% at 3 hours after solution preparation.
A short description of data set [4]: Solubility of solid forms in water (observation).

Data on seven compounds can be found in US20230398098A1, “TOPICAL DETOMIDINE FORMULATIONS” (Clexio Biosciences Ltd., priority 2020, published 2023).

Each structure is given as a SMILES string. Where a name gives a salt, the structure may show the parent alone.

For `Cc1cccc(Cc2c[nH]cn2)c1C` [anhydrous detomidine HCl], in data set [1] (DVS), the “RH at which the anhydrate absorbs water / transforms completely into the monohydrate” value is 30-50% and the “RH at which the anhydrate did not absorb water” value was less than 30%.

As to `Cc1cccc(Cc2cnc[nH]2)c1C.Cl.O` [Batch v], in data set [2] (listed as v), the “RRT = 0.38 content at 2 years” value is 0.02% and the “Initial RRT = 0.38 content” value is “not detectable”. In addition, the “RRT=0.38 in the reaction product” value in data set [3] is given as 0.14%.

With `Cc1cccc(Cc2c[nH]cn2)c1C` [detomidine free base, 4-[(2,3-dimethylphenyl)methyl]-1H-Imidazole], the solubility in water entry in data set [4] was “insoluble in water”. The hygroscopicity entry in data set [1] (DVS, 24.4° C. (FIG. 1)) is given as “non-hygroscopic”. The water absorbed result in data set [1] (at relative humidity (RH)>50%) is on record as “more than 1%”.

Consider `Cc1cccc(Cc2c[nH]cn2)c1C` [detomidine hydrochloride], for which the solubility in water entry in data set [4] is reported as “soluble”.

Consider `Cc1cccc(Cc2c[nH]cn2)c1C` [detomidine HCl monohydrate], for which, in data set [1] (dehydration cycle, DVS), the “RH at which the monohydrate began to lose water” value is on record as approximately 10% and the “RH at which the monohydrate converted into the anhydrate” value stood at 0%.

For `Cc1cccc(Cc2c[nH]cn2)c1C.Cl` [Sample 2], the “water level absorbed, cKF” value in data set [1] (hydration of the anhydrous form) was 7.7%.

Regarding `Cc1cccc(Cc2cnc[nH]2)c1C.Cl.O` [Batch iv], in data set [2] (listed as iv), the “RRT = 0.38 content at 2 years” value is reported as 1% and the “Initial RRT = 0.38 content” value was 0.2%.
